In patent publication US20250215030A1, “STAT MODULATORS AND USES THEREOF” (Recludix Pharma, Inc., priority 2022, published 2025):

What was measured:
pSTAT6 (pY641-STAT6) = biological target: T1, pSTAT6 (pY641-STAT6) (Homo sapiens, UniProt P42226); assay: MSD-pSTAT-PBMC Assay (pSTAT6, IL-4 stimulated); format: cell-based; details: compound 3 hrs, then 1 ng/mL IL-4 for 10 min
T1 construct: host or cells: cryopreserved PBMC
T1 sequence (P42226 1-847): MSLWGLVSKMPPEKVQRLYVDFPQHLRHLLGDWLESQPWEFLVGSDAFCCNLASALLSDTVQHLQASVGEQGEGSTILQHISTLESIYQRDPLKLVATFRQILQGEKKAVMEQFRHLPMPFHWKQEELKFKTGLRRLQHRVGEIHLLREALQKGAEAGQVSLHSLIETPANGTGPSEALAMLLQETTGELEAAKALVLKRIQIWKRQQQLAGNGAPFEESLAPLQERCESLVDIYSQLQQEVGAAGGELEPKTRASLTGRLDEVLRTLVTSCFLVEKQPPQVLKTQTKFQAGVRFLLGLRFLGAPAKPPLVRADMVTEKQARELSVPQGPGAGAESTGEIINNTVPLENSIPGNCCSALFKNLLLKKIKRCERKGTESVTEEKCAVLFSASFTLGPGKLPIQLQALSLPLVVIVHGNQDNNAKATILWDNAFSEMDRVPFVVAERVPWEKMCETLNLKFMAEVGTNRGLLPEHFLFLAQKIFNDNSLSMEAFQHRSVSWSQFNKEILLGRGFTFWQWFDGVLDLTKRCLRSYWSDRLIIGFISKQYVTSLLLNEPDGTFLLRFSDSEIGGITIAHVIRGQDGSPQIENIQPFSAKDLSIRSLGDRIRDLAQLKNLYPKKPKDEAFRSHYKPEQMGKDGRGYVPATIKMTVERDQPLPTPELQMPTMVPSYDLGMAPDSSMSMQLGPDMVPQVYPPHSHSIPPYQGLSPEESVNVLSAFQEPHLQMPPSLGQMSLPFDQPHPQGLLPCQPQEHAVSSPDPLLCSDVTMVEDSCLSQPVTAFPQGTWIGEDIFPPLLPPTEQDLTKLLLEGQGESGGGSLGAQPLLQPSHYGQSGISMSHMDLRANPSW
Description: Cryopreserved Peripheral Blood Mononuclear Cells (PBMC) are from AllCells. Recombinant Human IL-4 and IL-6 are from Peprotech. Mouse monoclonal anti-STAT3 antibody, rabbit monoclonal anti-pY705-STAT3 antibody, rabbit monoclonal Anti-pY641-STAT6 antibody, and lysis buffer are from Cell Signaling Technology (CST). Mouse monoclonal anti-STAT6 antibody is from BioLegend. Assay plates, blocker, and anti-rabbit secondary antibody are from Meso Scale Discovery (MSD).
Cryopreserved PBMCs were thawed out and allowed to recover overnight in IMDM+10% heat-inactivated FBS prior to plating 50,000 (STAT3) or 25,000 (STAT6) cells per well in 96-well U-bottom tissue culture plates. Cells were treated with compound for 3 hrs, then stimulated with 10 ng/mL IL-6 (STAT3) or 1 ng/mL IL-4 (STAT6) for 10 min. Cells were then spun down and washed with ice-cold PBS prior to lysing the cell pellet with 1× lysis buffer (CST) with 1× HALT protease and phosphatase inhibitor cocktail (Thermo). Lysates were transferred to and incubated overnight at 4° C. with shaking in QuickPlex 96-well high bind assay plates (MSD) pre-coated overnight with 30 μL per well of 0.6 μg/mL mouse monoclonal anti-STAT3 antibody (STAT3) or 2 μg/mL mouse monoclonal anti-STAT6 antibody (STAT6) in 1×PBS, and pre-blocked for 1 hour with 3% Blocker-A (MSD). Captured protein in the assay plates were then washed and probed with 25 μL per well of 0.25 μg/ml rabbit monoclonal anti-pY705-STAT3 antibody (STAT3) or 0.18 μg/ml rabbit monoclonal Anti-pY641-STAT6 antibody (STAT6) in 1% Blocker-A for 1 hour at room temperature with shaking, then washed and probed with 25 ul per well of 1 ug/mi Sulfo-TAG Labeled Goat Anti-Rabbit Antibody (MSD) in 1% Blocker-A for 1 hour at room temperature with shaking. Assay plates were then washed and 150 μL of 1× Read Buffer-T (MSD) was added to each well prior to reading on an SQ120 MSD Plate Reader. Assay signal from each sample was subtracted by the signal from unstimulated control wells and normalized to DMSO control wells. IC50 values were calculated using Graph Pad Prism Dose-Response Nonlinear Regression with variable slope. For both pSTAT3 and pSTAT6 A=≤100 nM; B=>100-1000 nM; C=>1000-3000 nM; and D=>3 μM.

pSTAT3 (pY705-STAT3) = biological target: T2, pSTAT3 (pY705-STAT3) (Homo sapiens, UniProt P40763); assay: MSD-pSTAT-PBMC Assay (pSTAT3, IL-6 stimulated); format: cell-based; details: PBMC, compound 3 hrs, then 10 ng/mL IL-6 for 10 min; MSD pY705-STAT3; read-out: pSTAT3
T2 construct: host or cells: cryopreserved PBMC
T2 sequence (P40763 whole entry): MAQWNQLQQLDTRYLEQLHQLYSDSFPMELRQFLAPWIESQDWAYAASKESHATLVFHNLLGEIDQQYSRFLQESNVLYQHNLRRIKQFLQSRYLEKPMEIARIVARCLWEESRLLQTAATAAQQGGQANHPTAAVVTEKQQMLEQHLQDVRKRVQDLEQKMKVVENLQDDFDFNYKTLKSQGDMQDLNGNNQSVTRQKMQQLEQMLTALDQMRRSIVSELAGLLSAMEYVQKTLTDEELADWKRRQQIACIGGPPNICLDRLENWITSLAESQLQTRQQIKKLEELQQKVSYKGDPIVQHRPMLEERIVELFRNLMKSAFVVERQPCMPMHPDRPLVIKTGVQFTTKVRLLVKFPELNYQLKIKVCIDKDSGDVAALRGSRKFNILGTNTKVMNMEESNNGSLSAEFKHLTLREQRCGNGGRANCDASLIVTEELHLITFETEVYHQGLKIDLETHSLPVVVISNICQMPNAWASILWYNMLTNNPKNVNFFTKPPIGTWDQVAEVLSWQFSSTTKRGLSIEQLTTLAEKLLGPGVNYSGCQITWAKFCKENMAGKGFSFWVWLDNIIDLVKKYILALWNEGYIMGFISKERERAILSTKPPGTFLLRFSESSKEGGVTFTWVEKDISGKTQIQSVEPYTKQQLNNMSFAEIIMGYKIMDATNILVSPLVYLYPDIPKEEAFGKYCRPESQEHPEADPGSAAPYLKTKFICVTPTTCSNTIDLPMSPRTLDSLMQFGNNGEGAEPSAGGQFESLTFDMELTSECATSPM
How it was run: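 Human PBMCs (50,000 cells/well for STAT3, 25,000 for STAT6) treated with compound 3 h, then stimulated 10 min with 10 ng/mL IL-6 or 1 ng/mL IL-4. Lysate pSTAT3 (pY705) or pSTAT6 (pY641) measured by MSD sandwich electrochemiluminescence. Signal minus unstimulated, normalized to DMSO; IC50 by variable-slope nonlinear regression.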

IC50 (pSTAT6 (pY641-STAT6)) [nM] | IC50 (pSTAT3 (pY705-STAT3)) [nM] | SMILES
< 100 | < 100 | CC(C)(C)C(=O)OCOP(=O)(OCOC(=O)C(C)(C)C)C(F)(F)c1ccc2sc(C(=O)N[C@H]3C[C@@H]4C[C@@H]4C[C@H]4CC[C@@H](C(=O)N5C[C@@H](C#N)[C@H](c6ccccc6)C5)N4C3=O)cc2c1 (relative stereo) [Compound 139, ((((2-(((3S,6S,7aR, 8aS,9aR)-3-((rel-trans)-3-cyano-4-phenyl-pyrrolidine-1-carbonyl)-5-oxodecahydro-1H-cyclopropa [d]pyrrolo[1,2-a]azocin-6-yl)carbamoyl)benzo[b]thiophen-5-yl)difluoro-methyl)phosphoryl)bis(oxy)) bis(methylene) bis(2,2-dimethylpro-panoate)]
> 3000 | < 100 | CC(C)(C)C(=O)OCOP(=O)(OCOC(=O)C(C)(C)C)[C@@H](F)c1ccc2sc(C(=O)N[C@H]3C[C@@H]4C[C@@H]4C[C@H]4CC[C@@H](C(=O)N5CC(C(=O)N6CCOCC6)C5)N4C3=O)cc2c1 (single isomer, unassigned) [Compound 182, ((((S) or (R)-fluoro(2-(((3S,6S,7aS, 8aR,9aR)-3-(3-(morpholine-4-carbonyl)azetidine-1-carbonyl)-5-oxodecahydro-1H-cyclopropa[d]pyrrolo[1,2-a]azocin-6-yl)carbamoyl)benzo[b]thiophen-5-yl)methyl)phosphoryl)bis(oxy)) bis(methylene) bis(2,2-dimethyl-propanoate)]
100 to 1000 | < 100 | CC(C)(C)C(=O)OCOP(=O)(OCOC(=O)C(C)(C)C)[C@@H](F)c1ccc2sc(C(=O)N[C@H]3C[C@@H]4C[C@@H]4C[C@H]4CC[C@@H](C(=O)N5CC(C(=O)N6CCOCC6)C5)N4C3=O)cc2c1 (single isomer, unassigned) [Compound 183, ((((R) or (S)-fluoro(2-(((3S,6S,7aS, 8aR,9aR)-3-(3-(morpholine-4-carbonyl)azetidine-1-carbonyl)-5-oxodecahydro-1H-cyclopropa[d]pyrrolo[1,2-a]azocin-6-yl)carbamoyl)benzo[b]thiophen-5-yl)methyl)phosphoryl)bis(oxy)) bis(methylene) bis(2,2-dimethyl-propanoate)]
> 3000 | 100 to 1000 | CC(C)(CO)C(=O)SCCOP(=O)(OCCSC(=O)C(C)(C)CO)C(F)(F)c1ccc2sc(C(=O)N[C@H]3C[C@@H]4C[C@@H]4C[C@H]4CC[C@@H](C(=O)N5CC(C(=O)N6CCOCC6)C5)N4C3=O)cc2c1 [Compound 131, S,S′-((((difluoro(2-(((3S,6S,7aS, 8aR,9aR)-3-(3-(morpholine-4-carbonyl)azetidine-1-carbonyl)-5-oxodecahydro-1H-cyclopropa[d]pyrrolo[1,2-a]azocin-6-yl)carbamoyl)benzo[b]thiophen-5-yl)methyl)phosphoryl)bis(oxy))bis(ethane-2,1-diyl)) bis(3-hydroxy-2,2-dimethyl-propane-thioate)]
> 3000 | > 3000 | CC(C)(CO)C(=O)SCCOP(=O)(Cc1ccc2sc(C(=O)N[C@H]3C[C@@H]4C[C@@H]4C[C@H]4CC[C@@H](C(=O)N5CC(C(=O)N6CCOCC6)C5)N4C3=O)cc2c1)OCCSC(=O)C(C)(C)CO [Compound 133, S,S′-(((((2-(((3S,6S,7aS, 8aR,9aR)-3-(3-(morpholine-4-carbonyl)azetidine-1-carbonyl)-5-oxodecahydro-1H-cyclopropa[d]pyrrolo[1,2-a]azocin-6-yl)carbamoyl)benzo[b]thiophen-5-yl)methyl)phosphoryl)bis(oxy))bis(ethane-2,1-diyl)) bis(3-hydroxy-2,2-dimethyl-propane-thioate]
> 3000 | < 100 | O=C(OCOP(=O)(Cc1ccc2sc(C(=O)N[C@H]3C[C@H]4C[C@H]4C[C@H]4CC[C@@H](C(=O)N5CC(c6cccnc6)C5)N4C3=O)cc2c1)OCOC(=O)OC1CCOCC1)OC1CCOCC1 [Compound 135, ((((2-(((3S,6S,7aR, 8aS,9aR)-5-oxo-3-(3-(pyridin-3-yl)azetidine-1-carbonyl)decahydro-1H-cyclopropa[d]pyrrolo[1,2-a]azocin-6-yl)carbamoyl)benzo[b]thiophen-5-yl)methyl)phosphoryl)bis(oxy)) bis(methylene) bis(tetrahydro-2H-pyran-4-yl) bis(carbonate)]
> 3000 | 1000 to 3000 | CC(C)(O)CC(=O)SCCOP(=O)(OCCSC(=O)CC(C)(C)O)C(F)(F)c1ccc2sc(C(=O)NC3CC4CC4CC4CCC(C(=O)N5CC(n6ccnc6)C5)N4C3=O)cc2c1 [Compound 136, S,S′-(((((2-(((3S,6S,7aS, 8aR,9aR)-3-(3-(1H-imidazol-1-yl)azetidine-1-carbonyl)-5-oxodecahydro-1H-cyclopropa[d]pyrrolo[1,2-a]azocin-6-yl)carbamoyl)benzo[b]thiophen-5-yl)difluoro-methyl)phosphoryl)bis(oxy))bis (ethane-2,1-diyl))bis(3-hydroxy-3-methylbutane thioate)]
> 3000 | 1000 to 3000 | CC(C)(CO)C(=O)SCCOP(=O)(OCCSC(=O)C(C)(C)CO)C(F)(F)c1ccc2sc(C(=O)N[C@H]3C[C@@H]4C[C@@H]4C[C@H]4CC[C@@H](C(=O)N5CC(n6ccnc6)C5)N4C3=O)cc2c1 [Compound 137, S,S′-(((((2-(((3S,6S,7aS, 8aR,9aR)-3-(3-(1H-imidazol-1-yl)azetidine-1-carbonyl)-5-oxodecahydro-1H-cyclopropa[d]pyrrolo[1,2-a]azocin-6-yl)carbamoyl)benzo[b]thiophen-5-yl)difluoro-methyl)phosphoryl)bis (oxy))bis(ethane-2,1-diyl))bis(3-hydroxy-2,2-dimethylpro-panethioate)]
1000 to 3000 | < 100 | CCCC(=O)SCCOP(=O)(OCCSC(=O)C(C)(C)C)C(F)(F)c1ccc2sc(C(=O)N[C@H]3C[C@@H]4C[C@@H]4C[C@H]4CC[C@@H](C(=O)N5CC(C(=O)N6CCOCC6)C5)N4C3=O)cc2c1 (stereo partly drawn) [Compound 138, S-(2-(((difluoro(2-(((3S,6S,7aS, 8aR,9aR)-3-(3-(morpholine-4-carbonyl)azetidine-1-carbonyl)-5-oxodecahydro-1H-cyclopropa [d]pyrrolo[1,2-a]azocin-6-yl)carbamoyl)benzo [b]thiophen-5-yl)methyl)(2-(pivaloylthio)ethoxy)phosphoryl)oxy)ethyl) butanethioate]
< 100 | < 100 | CC(C)(C)C(=O)OCOP(=O)(OCOC(=O)C(C)(C)C)C(F)(F)c1ccc2sc(C(=O)N[C@H]3C[C@H]4C[C@H]4C[C@H]4CC[C@@H](C(=O)N5C[C@@H](C#N)[C@H](c6ccccc6)C5)N4C3=O)cc2c1 [Compound 140, ((((2-(((3S,6S,7aR, 8aS,9aR)-3-((3S,4R)-3-cyano-4-phenyl-pyrrolidine-1-carbonyl)-5-oxodecahydro-1H-cyclopropa [d]pyrrolo[1,2-a]azocin-6-yl)carbamoyl)benzo[b]thiophen-5-yl)difluoromethyl)phosphoryl)bis(oxy)) bis(methylene) bis(2,2-dimethylpro-panoate)]
